Measured values as given in patent publication US20220380430A1, “Non-Transgenic Functional Rescue of Neuropeptides” (Worcester Polytechnic Institute, priority 2021, published 2022).
No end group written: not given here.

Legend:
trh-1 mutant worms = test: Size comparison (body volume) after rescue-by-feeding; type: in vivo, C. elegans; details: trh-1 mutant animals fed peptide; N2 set as 100%
Procedure: All animals were maintained on bacterial lawns of OP50 E. coli, at 20° C., on NGM agar plates until the start of experiments. Mutant or control animals were transferred onto lawns of DH5α E. coli expressing either scramble peptide or the rescue peptide-of-interest on NGM plates containing […] AMP and 1 mM IPTG. Animals were reared on the peptide-expressing lawns for at least 48 hours at 20° C. before assaying for rescue of mutant phenotype at the appropriate developmental stage.
The body morphology different of trh-1 mutants was compared to wild-type worms by body volume measurements. Wild-type (N2) and trh-1 animals were synchronized by embryonic starvation following alkaline hypochlorite protocols. Ten gravid hermaphrodites from OP50 E. coli plates were picked into 30 μL drops of alkaline hypochlorite solution (20% sodium hypochlorite, 500 mM KOH). Two drops were placed on either side of an unseeded NGM plate, resulting in 20 animals per plate. Plates were then incubated for 24 hours at 20° C. before L1 larval animals washed with 1 mL M9 (22 mM KH2PO4, 42.25 mM Na2HPO4, 85.5 mM NaCl, 1 mM MgSO4) per unseeded NGM plate. Allow L1 worms to settle into pellet before removing M9 supernatant. Repeat washing step 2 more times. Plate worm pellet onto NGM with […] AMP and 1 mM IPTG plates containing 75 μL peptide lawns.
After at 48 hours at 20° C., animals were recorded using a Basler acA2500-14 uM camera using WormLab software (WormLab 4.1; MBF Bioscience, 2017) for 65 seconds. Worm length, width, and area were calculated within the WormLab software (FIG. 5C-FIG. 5H). As the WormLab worm width metric is an average of cross-sections throughout the length of each worm, this was used to calculate the volume of a worm as a cylinder, with the Volume=π*(0.5*width)^2*length (FIG. 2A-FIG. 2B, FIG. 5A-FIG. 5B).
Two to four plates were recorded per day for at least three days to generate data sets. Control plates of N2 and trh-1 animals raised on the scramble peptide were grown alongside every rescue feeding. Each “worm track” was considered an n=1. Tracks were excluded if (1) worm tracks less than 10 seconds, or (2) worms were further than two standard deviations from the mean metric. Following tests for normality, comparisons were made using either Mann-Whitney tests for direct comparisons between N2 and trh-1 animals reared on OP50, or Kruskal-Wallis non-parametric ANOVAs and Dunn's multiple comparisons tests for animals raised on peptide feeding strains. Comparisons were made for metrics: length (FIG. 5C-FIG. 5D), width (FIG. 5e-FIG. 5F), area (FIG. 5G-FIG. 5H), and volume (FIG. 2A-FIG. 2B, FIG. 5A-FIG. 5B).

flp-3 lof males = test: Single worm attraction assay (SWAA) to ascr #8 after FLP-3 peptide rescue-by-feeding; type: in vivo, C. elegans; details: flp-3 lof males raised on peptide; in words
Procedure: The outer forty wells of a 48-well suspension culture plate (Olympus Plastics, Cat #: 25-103) were seeded with 200 μL of standard NGM agar. To prepare the plates for the assay, they were acclimated to room temperature, at which point each well was seeded with 65 μL of OP50 E. coli. The assay plates were then transferred to a 37° C. incubator with the lid tilted for 4 h to allow the bacterial culture to dry on the agar. Once the bacterial culture dried, the lid was replaced the plate was stored at 20° C. until used in the assay. Fifty to sixty L4 worms were segregated by sex and stored at 20° C. for 5 h to overnight to be assayed as young adults. 0.8 μL of either vehicle control or ascaroside #8 was placed in the center of the well corresponding to that condition within the quadrant being tested, following a random block design (FIG. 11A). A single worm was placed in each of the 10 wells to be assayed, and the plate was transferred to a light source and camera and recorded for 15 m. This process was repeated for all four quadrants. Each strain and sex were assayed over five plates assayed on at least three different days. Raw dwell time values were calculated by subtracting the time a worm exited the cue (center of the well in spatial controls), from the time it entered, as in the SRA. This was determined per visit, and the average dwell time was calculated for each animal in the quadrant. Averages of the four-quadrant means were determined per plate, and a minimum of five plates were assayed per strain/condition. The mean raw dwell time across five plates was calculated and used for statistical analyses and graphical display. The average dwell time in the ascaroside was divided by the average dwell time within the vehicle control per plate to generate a fold-change. To transform the data, the log of this fold-change was taken, and the average log(fold-change) was used for statistical analyses and graphical display. […]

NSKLHRGGGRSRTSGSTGSMASHARGSPGLQ-NH2 [SCRAMBLE, scramble control peptide expressed in E. coli DH5α, negative control, reference compound]
Relative Body Volume (trh-1 mutant worms): ~120% | rescue of attraction to ascr #8 (dwell time, log(fold-change)) (flp-3 lof males): does not affect behavior
